Laboratory results from PubChem BioAssay AID1963422 (Molecular Pharmacology Branch, DTP, NCI, 2024).
Where “and” joins values, the source holds several entries; their conditions need not be identical. Identical values can stand only once. One block for each compound: values may come before it.

Test system: 463943-066-T-J2-PDC complex spheroid growth
Experiment: Anticancer human tumor 463943-066-T-J2-PDC patient-derived colon adenocarcinoma cell line growth inhibition [Asc]
Conditions: for viability, T/C: stronger effect = lower value
Method: Multicellular complex tumor spheroid response to apoptosis pathway targeting inhibitors Alrizomadlin, Pelcitoclax, and Dasminapant in combination with a variety of drugs and investigational agents in selected tumor cell lines
The MDM2 inhibitor alrizomadlin, the Bcl-2/Bcl-xL inhibitor pelcitoclax, and the IAPs inhibitor dasminapant were evaluated both individually and in combination with standard of care and investigational anticancer small molecules within a complex spheroid model of solid tumors. . Complex spheroids include a stromal component modeled by human endothelial cells (HUVEC) and fibroblasts modeled by human mesenchymal stem cells (MSCs). The concentration ranges selected for each drug and investigational agent were based upon clinically achievable concentrations if the clinical Cmax of the agent was known.
Compounds. The drugs and investigational agents: alrizomadlin (APG-115; NSC831270), pelcitoclax (APG-1252; NSC835773), dasminapant (APG-1387;NSC834197), TAK-243 (NSC785004), copanlisib (NSC809693), olaparib (NSC753686), talazoparib (NSC767125), cobimetinib (NSC 768068), eltanexor (KPT-8602, NSC 794443), abemaciclib (NSC 768073), sotorasib (NSC818433), adagrasib (NSC 831453), MRTX-1133 (NSC 836407), Iadademestat (ORY1001, NSC 806812), and RMC-4630 (NSC839698), were obtained from the NCI Developmental Therapeutics Program Chemical Repository. The FDA-approved anticancer drug set is available from the Developmental Therapeutics Program at https://dtp.cancer.gov/organization/dscb/obtaining/available plates.htm. […] The stock solutions were prepared in dimethyl sulfoxide (DMSO, Sigma-Aldrich, St. Louis, MO, cat. D2650) at 800-fold the tested concentration and stored at -70 degrees C prior to their use. All drugs and investigational agents were tested over a range starting from a high concentration at or near the clinical Cmax and decreasing in half-log increments. If the clinical Cmax for an agent had not been determined, the highest concentration tested was 10 microM.
The patient-derived cancer (PDC) cell lines include five colon adenocarcinomas: 186277-243-T-J2-PDC, 616215-338-R-J1-PDC, 439559-082-T-J2-PDC, 463943-066-T-J2-PDC, and 519858-162-T-J1-PDC; three pancreatic carcinomas: 323965-272-R-J2-PDC, 521955-158-R6-J3-PDC, and 521955-158-R2-J5-PDC; two uterine sarcomas: 327498-152-R-J2-PDC and 993429-296-R-J1-PDC; two rhabdomyosarcomas: 755483-174-R-J1-PDC and 772245-204-R-J1-PDC; two soft tissue sarcomas: 126254-015-R-J1-PDC and 494315-158-R-J1-PDC; two malignant fibrous histiocytomas: 317291-083-R-J1-PDC and 596521-263-R-J1-PDC; two breast carcinomas: 171881-019-R-J1-PDC and 885512-296-R-J2-PDC; and one ovarian carcinoma: 6556581-035-R-J-PDC were obtained from the NCI PDMR, (https://pdmr.cancer.gov). The established cell lines HSSY-2 synovial sarcoma (RRID:CVCL 8719), SYO-1 synovial sarcoma (RRID:CVCL_7146), MPNST malignant peripheral neural sheath tumor were obtained from the Sloan Kettering Institute. The following established cell lines were purchased from the American Type Culture Collection (ATCC, Manassas, VA), Sor the received from the NCI repository:, PANC-1 pancreatic carcinoma (CRL-1469, RRID:CVCL_0480), OVCAR-5 ovarian carcinoma (RRID:CVCL_1628), OVCAR-8 ovarian carcinoma (RRID:CVCL_1629), , MCF-7 breast carcinoma (CRL-12584, RRID:CVCL_0031), MDA-MB-231 breast carcinoma (CRL-12532, RRID:CVCL_0062), NCI-H1876 small cell lung carcinoma (CRL-5902, RRID:CVCL_1503), NCI-H510A small cell lung carcinoma (HTB-184, RRID:CVCL_1565), NCI-H1417 (CRL-5869, RRID:CVCL_1469), and NCI-H196 small cell lung carcinoma (CRL-5823, RRID:CVCL_1509). Dr. Peter Houghton (Greehey Children's Cancer Research Institute, University of Texas Health Science Center, San Antonio, TX) provided Rh-18 rhabdomyosarcoma (RRID:CVCL_1659). Pooled donor human umbilical vein endothelial cells (HUVEC, Lonza, cat. CC-2519) and human mesenchymal stem cells (hMSC, Lonza, cat. PT-2501) were purchased from Lonza (Walkersville, MD).
Cell Culture. […]

[1] = compound alone, run of 11/07/2022
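Note: compound exposure lasted 7 days.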
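Throughout, for viability, T/C: 100% = DMSO vehicle control wells.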

SMILES: C=C(F)C(=O)N1CCN(c2nc(OCC3CCCN3C)nc3c2CCN(c2cccc4cccc(Cl)c24)C3)CC1CC#N (stereo not given)
viability, T/C (compound 0.0316 µM): 98.4% and 102%
viability, T/C (compound 0.1 µM): 102% and 94.9%
viability, T/C (compound 0.316 µM): 102%
viability, T/C (compound 1 µM): 109% and 106%
viability, T/C (compound 3.16 µM): 95.6%
viability, T/C (compound 10 µM): 18.6% and 29.3%
IC50 (curve of compound): 6.27 µM and 7 µM

SMILES: CCN1CCN(Cc2ccc(Nc3ncc(F)c(-c4cc(F)c5nc(C)n(C(C)C)c5c4)n3)nc2)CC1
viability, T/C (compound 0.00316 µM): 102% and 101% and 107%
viability, T/C (compound 0.01 µM): 99.4% and 93.9% and 78.5%
viability, T/C (compound 0.0316 µM): 100% and 108% and 97.6%
viability, T/C (compound 0.1 µM): 98.9% and 96% and 104%
viability, T/C (compound 0.316 µM): 113% and 108% and 115%
viability, T/C (compound 1 µM): 119% and 120% and 125%
IC50 (curve of compound): > 1 µM

SMILES: CNC(C)C(=O)NC1CN(S(=O)(=O)c2cccc(S(=O)(=O)N3CCC4CCC(C(=O)NC(c5ccccc5)c5ccccc5)N4C(=O)C(NC(=O)C(C)NC)C3)c2)CCC2CCC(C(=O)NC(c3ccccc3)c3ccccc3)N2C1=O (stereo not given)
viability, T/C (compound 0.00316 µM): 99.1% [middle of 6 runs]
viability, T/C (compound 0.01 µM): 94.9% [middle of 6 runs]
viability, T/C (compound 0.0316 µM): 100% [middle of 6 runs]
viability, T/C (compound 0.1 µM): 99.2% [middle of 6 runs]
viability, T/C (compound 0.316 µM): 96.8% [middle of 6 runs]
viability, T/C (compound 1 µM): 92.2% [middle of 6 runs]
IC50 (compound alone, run of 11/15/2022): > 1 µM
IC50 (curve of compound): > 1 µM

SMILES: COc1c(OCCCN2CCOCC2)ccc2c3n(c(=NC(=O)c4cnc(N)nc4)nc12)CCN3
viability, T/C (compound 0.00316 µM): 94.5% and 96.1%
viability, T/C (compound 0.01 µM): 90.6% and 82%
viability, T/C (compound 0.0316 µM): 77.9% and 77.5%
viability, T/C (compound 0.1 µM): 65.9% and 65.1%
viability, T/C (compound 0.316 µM): 59% and 58.9%
viability, T/C (compound 1 µM): 41.5% and 44.9%
IC50 (curve of compound): 0.524 µM and 0.659 µM

SMILES: Cc1c(S(C)(=O)=O)c(-c2cc(F)cc(N3CCN(c4ccc(NS(=O)(=O)c5ccc(NC(CCN6CCC(C(=O)OCCCP(=O)(O)O)CC6)CSc6ccccc6)c(S(=O)(=O)C(F)(F)F)c5)cc4)CC3)c2)c(-c2ccc(Cl)cc2)n1C(C)C (stereo not given)
viability, T/C (compound 0.0316 µM): 96.2% [middle of 7 runs]
viability, T/C (compound 0.1 µM): 94.8% [middle of 7 runs]
viability, T/C (compound 0.316 µM): 87.8% [middle of 7 runs]
viability, T/C (compound 1 µM): 78% [middle of 7 runs]
viability, T/C (compound 3.16 µM): 62.6% [middle of 7 runs]
viability, T/C (compound 10 µM): 56.5% [middle of 7 runs]
IC50 [1]: > 10 µM

SMILES: Cc1nc(N2CCC3(CC2)COC(C)C3N)c(CO)nc1Sc1ccnc(N)c1Cl (stereo not given)
viability, T/C (compound 0.00949 µM): 97.7% and 107% (2×)
viability, T/C (compound 0.03 µM): 88.5% and 90.2% and 90.5%
viability, T/C (compound 0.0949 µM): 86.5% and 88.5% and 79.4%
viability, T/C (compound 0.3 µM): 87.4% and 87% and 82%
viability, T/C (compound 0.949 µM): 87% and 81.9% and 80.6%
viability, T/C (compound 3 µM): 70.8% (2×) and 71.8%
IC50 (curve of compound): > 3 µM

SMILES: Cn1ncnc1[C@H]1c2n[nH]c(=O)c3cc(F)cc(c23)N[C@@H]1c1ccc(F)cc1
viability, T/C (compound 0.000316 µM): 98.9% and 88% and 106%
viability, T/C (compound 0.001 µM): 91.2% and 98.6% and 99.5%
viability, T/C (compound 0.00316 µM): 103% and 107% and 104%
viability, T/C (compound 0.01 µM): 96.4% and 102% (2×)
viability, T/C (compound 0.0316 µM): 102% and 103% (2×)
viability, T/C (compound 0.1 µM): 99.3% and 97.9% and 94%
IC50 (curve of compound): > 0.1 µM

SMILES: NC(=O)C(=Cn1cnc(-c2cc(C(F)(F)F)cc(C(F)(F)F)c2)n1)c1cncnc1
viability, T/C (compound 0.000949 µM): 96.5% and 87.3% and 115%
viability, T/C (compound 0.003 µM): 84.7% and 83.7% and 102%
viability, T/C (compound 0.00949 µM): 92.6% and 85.6% and 96.3%
viability, T/C (compound 0.03 µM): 87.8% and 84.8% and 87.7%
viability, T/C (compound 0.0949 µM): 83.6% and 81.3% and 79.4%
viability, T/C (compound 0.3 µM): 73.8% and 73.3% and 60.4%
IC50 (curve of compound): > 0.3 µM

SMILES: NC1CCC(NC2CC2c2ccccc2)CC1 (stereo not given)
viability, T/C (compound 0.000316 µM): 89.8% and 86.8%
viability, T/C (compound 0.001 µM): 94.3% and 87.5%
viability, T/C (compound 0.00316 µM): 87.3% and 94.4%
viability, T/C (compound 0.01 µM): 92.6% and 95.7%
viability, T/C (compound 0.0316 µM): 94.2% and 88.1%
viability, T/C (compound 0.1 µM): 86.1% and 94.9%
IC50 (curve of compound): > 0.1 µM

Now from value to compound, other results behind:

IC50 (curve of compound): > 10 µM
SMILES: C#Cc1c(F)ccc2cc(O)cc(-c3ncc4c(N5CC6CCC(C5)N6)nc(OCC56CCCN5CC(F)C6)nc4c3F)c12 (stereo not given)
viability, T/C (compound 0.0316 µM): 103% and 101% and 90.9%
viability, T/C (compound 0.1 µM): 88.8% and 94.5% and 88.5%
viability, T/C (compound 0.316 µM): 100% and 104% and 103%
viability, T/C (compound 1 µM): 109% and 104% and 115%
viability, T/C (compound 3.16 µM): 105% and 100% (2×)
viability, T/C (compound 10 µM): 96.9% and 95.9% and 104%

IC50 (curve of compound): > 10 µM
SMILES: C=CC(=O)N1CCN(c2nc(=O)n(-c3c(C)ccnc3C(C)C)c3nc(-c4c(O)cccc4F)c(F)cc23)C(C)C1 (stereo not given)
viability, T/C (compound 0.0316 µM): 102% and 108%
viability, T/C (compound 0.1 µM): 90.1% and 88.6%
viability, T/C (compound 0.316 µM): 93% and 101%
viability, T/C (compound 1 µM): 100% and 110%
viability, T/C (compound 3.16 µM): 102% and 104%
viability, T/C (compound 10 µM): 93.7% and 107%

IC50 [1]: > 3 µM
IC50 (curve of compound): > 3 µM
SMILES: CCN1C(C(=O)NC23CCC(C(=O)O)(CC2)CC3)C(c2cccc(Cl)c2F)C2(C(=O)Nc3cc(Cl)ccc32)C12CCCCC2 (stereo not given)
viability, T/C (compound 0.00949 µM): 98.6% [middle of 8 runs]
viability, T/C (compound 0.03 µM): 96.1% [middle of 8 runs]
viability, T/C (compound 0.0949 µM): 88.7% [middle of 8 runs]
viability, T/C (compound 0.3 µM): 82.9% [middle of 8 runs]
viability, T/C (compound 0.949 µM): 76.8% [middle of 8 runs]
viability, T/C (compound 3 µM): 77.5% [middle of 8 runs]

IC50 (curve of compound): > 10 µM
SMILES: O=C(c1cc(Cc2n[nH]c(=O)c3ccccc23)ccc1F)N1CCN(C(=O)C2CC2)CC1
viability, T/C (compound 0.0316 µM): 98.1% and 99.9% and 93.3%
viability, T/C (compound 0.1 µM): 98.8% and 91.9% and 78.9%
viability, T/C (compound 0.316 µM): 99.5% and 98.5% and 103%
viability, T/C (compound 1 µM): 96.7% and 97.9% and 108%
viability, T/C (compound 3.16 µM): 103% and 97.2% and 92.4%
viability, T/C (compound 10 µM): 92.1% and 91.5% and 97.2%

IC50 (curve of compound): 0.159 µM and 0.14 µM and 0.397 µM
SMILES: O=C(c1ccc(F)c(F)c1Nc1ccc(I)cc1F)N1CC(O)([C@@H]2CCCCN2)C1
viability, T/C (compound 0.00316 µM): 88.3% and 95.1% and 104%
viability, T/C (compound 0.01 µM): 79.2% and 78% (2×)
viability, T/C (compound 0.0316 µM): 71.1% and 60.7% and 77.5%
viability, T/C (compound 0.1 µM): 57.1% and 58.9% and 75.6%
viability, T/C (compound 0.316 µM): 39.7% and 42% and 51.9%
viability, T/C (compound 1 µM): 29% and 29.9% and 35.8%
